Reference: PMC8066331, “Anticancer Activity of Triazolo-Thiadiazole Derivatives and Inhibition of AKT1 and AKT2 Activation” (Pharmaceutics, 2021)

What was measured:
HT-29 = system: HT-29; set-up: method as in PMID 32801761; details: HT-29 cells, concentration used for Akt phosphorylation study, determined in previous studies ref 23; cited from earlier work
Akt2 phosphorylation = assay: Detection of Akt2 phosphorylation by intracellular flow cytometry; type: cell-based, human; details: for decrease of Akt2 phospho-form: HT-29 cells; for phosphorylation of Akt2: GI50 and TGI concentrations
Procedure: (§1) To investigate whether KA25 and KA39 triazolo[3,4-b]thiadiazole derivatives inhibit the phosphorylation of Akt1 and Akt2 isoforms, three colorectal cancer cell lines including HT-29, LoVo, and SW403 were intracellularly stained upon treatment with the two referred compounds. Firstly, cells were seeded into a 6-well plate at a density of 7 × 10^5 cells/well and maintained at 37 °C in a […]. After 24 h of cell growth, the culture medium was discarded and replaced with 2 mL of fresh medium. […] The required GI50 and TGI concentrations (μΜ) of the KA25 and KA39 derivatives in HT-29 and LoVo cells have been determined in previous studies. To estimate the TGI concentration (μΜ) of the KA25 compound in SW403 cells, further MTT assays were carried out as previously described. Following drug exposure at the mentioned treatment conditions, the cells were collected after being washed with ice-cold PBS (pH = 7.4) and detached enzymatically with standard trypsinization. Two centrifugations were followed at 1500 rpm for 5 min, including two washing steps with 2 mL of cell staining buffer (BioLegend, San Diego, CA, USA). Cell pellets were fixed with 500 μL of pre-warmed fixation buffer (BioLegend, San Diego, CA, USA) and incubated at 37 °C for 15 min. Afterwards, one centrifugation was carried out at 1000 rpm for 5 min, followed by supernatant discard and resuspension of cell pellet through vortex. Then, the cells were washed with 2 mL of cell staining buffer twice, including two centrifugations at 1000 rpm for 5 min at room temperature. After the cell pellet was resuspended with gentle pipetting, cells were permeabilized by adding 1000 μL of pre-chilled True-Phos Permeabilization buffer (BioLegend, San Diego, CA, USA) while vortexing. Following overnight incubation at −20 °C, the cells were centrifuged at 2000 rpm for 5 min and the supernatant was discarded. After the cell pellet was resuspended by vortexing, two centrifugations were performed at 2000 rpm for 5 min including two washes with 2 mL of cell staining buffer. The cell pellet was resuspended with 200 μL of cell staining buffer, and equal volumes were transferred into the appropriate tubes. To detect total Akt1 and Akt2, 2 μL of purified anti-Akt1 and anti-Akt2 (BioLegend, San Diego, CA, USA) was added, respectively. Additionally, 2 μL of purified anti-Akt phospho(Ser473) (BioLegend, San Diego, CA, USA) was added for the detection of either phosphorylated AKT1 or AKT2. Furthermore, a cocktail of isotype controls (5 μL of purified mouse IgG1, 5 μL of purified mouse IgG2b, and 1 μL of purified rabbit polyclonal isotype control antibody) was used to differentiate nonspecific background signals from specific antibody signals. The cells were incubated for 30 min at room temperature in the dark and then stained with 5 μL of phycoerythrin (PE) donkey anti-rabbit IgG and 2 μL of Alexa Fluor 488 Goat anti mouse IgG (BioLegend, San Diego, CA, USA). After 15 min of incubation in the dark, the cells were resuspended with 1000 μL of cell staining buffer and analyzed in the flow cytometer (CyFlow®, SL, Partec, GmbH, Muenster, Germany). Flow cytometric analysis was carried out in triplicate and performed by Partec Flomax software.
(§2) The inhibitory impact of the two triazolo[3,4-b]thiadiazole derivatives KA25 and KA39 on the phosphorylation of either Akt1 (p-Akt1) or Akt2 (p-Akt2) was determined by the following formulas: p-Akt1(%) or p-Akt2 (%) = [(mean-xtreated − isotypetreated)]/[(mean-xuntreated − isotypeuntreated)] × 100, where the isotype value is subtracted from the mean-x value of the corresponding condition, including treated and untreated cells. As the formulas indicate, the difference in value of treated cells is divided by the difference in value of untreated cells (control group) to estimate the extent of inhibition. […]

Akt1 phosphorylation = assay: Detection of Akt1 phosphorylation by intracellular flow cytometry; type: cell-based, human; details: for decrease of Akt1 phospho-form: HT-29 cells; for phosphorylation of Akt1: GI50 and TGI concentrations
Procedure: as §1, §2

[1] = GI50 concentration (KA39 11.5 μΜ, KA25 1 μΜ), 3 h
[2] = GI50 concentration (KA39 11.5 μΜ, KA25 1 μΜ), 24 h
[3] = TGI concentration (KA39 15.9 μΜ, KA25 120 μΜ), 3 h
[4] = TGI concentration (KA39 15.9 μΜ, KA25 120 μΜ), 24 h
[5] = LoVo cells, 3 and 24 h (Figure S47)
[6] = SW403 cells, 3 and 24 h (Figure S48)

SMILES | TGI concentration (HT-29) | decrease of Akt2 phospho-form (Akt2 phosphorylation; [1]) | decrease of Akt2 phospho-form (Akt2 phosphorylation; [2]) | decrease of Akt2 phospho-form (Akt2 phosphorylation; [3]) | decrease of Akt2 phospho-form (Akt2 phosphorylation; [4]) | phosphorylation of Akt2 (Akt2 phosphorylation; [5]) | phosphorylation of Akt2 (Akt2 phosphorylation; [6]) | decrease of Akt1 phospho-form (Akt1 phosphorylation; [1]) | decrease of Akt1 phospho-form (Akt1 phosphorylation; [2]) | decrease of Akt1 phospho-form (Akt1 phosphorylation; [3]) | decrease of Akt1 phospho-form (Akt1 phosphorylation; [4]) | phosphorylation of Akt1 (Akt1 phosphorylation; [5]) | phosphorylation of Akt1 (Akt1 phosphorylation; [6])
COc1cc(Cc2nnc3sc(C=Cc4ccc(F)cc4)nn23)c(S(=O)(=O)N(C)C)cc1OC [KA25] | 120 μΜ | 73.74% | 76.9% | 82.6% | 86.4% | significantly inhibited | significantly inhibited | 83.38% | 79.8% | 86.45% | 87.73% | significantly inhibited | significantly inhibited
COc1cc(Cc2nnc3sc(-c4cc([N+](=O)[O-])ccc4[N+](=O)[O-])nn23)c(S(=O)(=O)N(C)C)cc1OC [KA39] | 15.9 μΜ | 60.76% | 83.55% | 58.87% | 86% | significantly inhibited | significantly inhibited | 73.66% | 75.71% | 72.9% | 88.5% | significantly inhibited | significantly inhibited
